Drawing on ChEMBL document CHEMBL3351259, “Semi-synthesis of biologically active nisin hybrids composed of the native lanthionine ABC-fragment and a cross-stapled synthetic DE-fragment” (2014), this text covers Activity and MIC for four molecules.

The nature of experiment [1]: Binding affinity affinity to lipid II (unknown origin) by nisin competitive assay.
Experiment [2] can be described thus: Induction of membrane leakage in large unilamellar vesicles composed of 1,2-dioleoyl-sn-glycero-3-phosphocholine and 0.2% lipid II […] at 5 uM by carboxyfluorescein based fluorescence spectroscopy. The class given is functional.
In a further experiment the test system is Bacillus subtilis. Description: Antimicrobial activity against Bacillus subtilis assessed as inhibition of bacterial growth after 24 hrs by broth micro-dilution assay. It is filed as functional.

≈ marks a conversion by molar mass, not a printed value. Calls of active or inactive are those of the source. No cut-off for these calls is given here.

On to `C=C1NC(=O)[C@H]([C@@H](C)CC)NC(=O)[C@@H](NC(=O)/C(=C/C)NC(=O)[C@@H](N)[C@@H](C)CC)CSC[C@@H](C(=O)N[C@@H]2C(=O)N3CCC[C@H]3C(=O)NCC(=O)N[C@H](C(=O)N[C@@H](CCCCN)C(=O)N[C@@H]3C(=O)NCC(=O)N[C@@H](C)C(=O)N[C@@H](CC(C)C)C(=O)N[C@@H](CCSC)C(=O)NCC(=O)N[C@H](C(=O)N[C@@H](CC(N)=O)C(=O)NCc4cn([C@@H](CCCCN)C(=O)N[C@@H]5C/C=C/C[C@@H]6NC(=O)[C@@H](C/C=C/C[C@@H](C(=O)OC)NC(=O)[C@H](CC(N)=O)NC6=O)NC(=O)[C@H](C)NC5=O)nn4)CS[C@H]3C)CS[C@H]2C)NC(=O)[C@H](CC(C)C)NC1=O`, for which the outcome in experiment [1] was Active. Also, the outcome in experiment [2] was inactive.

As a reminder, the MIC is the least concentration at which growth counts as inhibited. As to `C=C1NC(=O)[C@H]([C@@H](C)CC)NC(=O)[C@@H](NC(=O)/C(=C/C)NC(=O)[C@@H](N)[C@@H](C)CC)CSC[C@@H](C(=O)N[C@@H]2C(=O)N3CCC[C@H]3C(=O)NCC(=O)N[C@H](C(=O)N[C@@H](CCCCN)C(N)=O)CS[C@H]2C)NC(=O)[C@H](CC(C)C)NC1=O`, the MIC in the experiment on Bacillus subtilis stood at 167 µM (≈ 192 µg/mL). The outcome in experiment [2] was inactive.

For `C=C1NC(=O)[C@H]([C@@H](C)CC)NC(=O)[C@@H](NC(=O)/C(=C/C)NC(=O)[C@@H](N)[C@@H](C)CC)CSC[C@@H](C(=O)N[C@@H]2C(=O)N3CCC[C@H]3C(=O)NCC(=O)N[C@H](C(=O)N[C@@H](CCCCN)C(=O)N[C@@H]3C(=O)NCC(=O)N[C@@H](C)C(=O)N[C@@H](CC(C)C)C(=O)N[C@@H](CCSC)C(=O)NCC(=O)N[C@H](C(=O)N[C@@H](CC(N)=O)C(=O)N[C@@H](CC(C)C)c4cn([C@@H](CCCCN)C(=O)N[C@@H]5C/C=C/C[C@@H]6NC(=O)[C@@H](C/C=C/C[C@@H](C(=O)N[C@@H](CCCCC)C(=O)NC)NC(=O)[C@H](CC(N)=O)NC6=O)NC(=O)[C@H](C)NC5=O)nn4)CS[C@H]3C)CS[C@H]2C)NC(=O)[C@H](CC(C)C)NC1=O`, the MIC with Bacillus subtilis worked out at 4.07 µM (≈ 11.4 µg/mL). Also, the result in experiment [2] was inactive.

With `C=C1NC(=O)[C@H]([C@@H](C)CC)NC(=O)[C@@H](NC(=O)/C(=C/C)NC(=O)[C@@H](N)[C@@H](C)CC)CSC[C@@H](C(=O)N[C@@H]2C(=O)N3CCC[C@H]3C(=O)NCC(=O)N[C@H](C(=O)N[C@@H](CCCCN)C(=O)N[C@@H]3C(=O)NCC(=O)N[C@@H](C)C(=O)N[C@@H](CC(C)C)C(=O)N[C@@H](CCSC)C(=O)NCC(=O)N[C@H](C(=O)N[C@@H](CC(N)=O)C(=O)O)CS[C@H]3C)CS[C@H]2C)NC(=O)[C@H](CC(C)C)NC1=O`, in experiment [1], the outcome was Active. For the same molecule, in the experiment on Bacillus subtilis, the MIC was 6.2 µM (≈ 11.7 µg/mL). In addition, in experiment [2], the outcome was inactive.
